Source: patent US11020415B2, “Use of albiflorin in preparation of products for improving function of intestinal flora system” (priority 2016, dated 2021)

Experiments:
[1] = tested on: intestinal flora in stressed rats; experiment: Targeted metabolomics of intestinal flora metabolism in chronic unpredictable mild stress (CUMS) model rats (PLS-DA, VIP analysis); type: in vivo, rat
Procedure: We established a chronic unpredictable mild stress (CUMS) model of rats, and used a new generation of targeted metabolomics method to study the metabolic function of intestinal flora in stressed rats.
(§1) We further administered the stressed model rats an albiflorin treatment for 7 consecutive days at each dose of 7 mg/k& for each treatment. 7 days later, we used metabolomics and a 16sDNA high-throughput metagenomic sequencing technology to re-evaluate the function and composition of intestinal flora in the rats. […] This was consistent with the results of analysis of flora composition.
As a positive drug, fluoxetine was continuously administered for 7 days at each dose of 10 mg/kg/d.

[2] = molecular target: cannabinoid receptor CB2 (Homo sapiens, UniProt P34972); experiment: Cannabinoid receptor CB2 activity (stated, no method); details: stated as finding of the invention's research; no data or method printed
Chain of cannabinoid receptor CB2 (P34972 whole entry): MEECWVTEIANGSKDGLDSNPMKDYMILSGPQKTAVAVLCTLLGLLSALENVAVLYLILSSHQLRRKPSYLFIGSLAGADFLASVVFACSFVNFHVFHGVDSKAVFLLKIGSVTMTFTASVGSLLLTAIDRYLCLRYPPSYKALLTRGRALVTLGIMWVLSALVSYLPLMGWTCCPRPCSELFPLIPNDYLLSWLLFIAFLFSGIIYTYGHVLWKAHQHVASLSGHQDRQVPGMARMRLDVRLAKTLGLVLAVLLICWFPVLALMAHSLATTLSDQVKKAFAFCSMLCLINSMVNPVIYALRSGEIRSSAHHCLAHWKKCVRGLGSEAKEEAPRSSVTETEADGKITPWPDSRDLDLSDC

[3] = tested on: intestinal flora in stressed rats; experiment: High-throughput 16s metagenomic sequencing of intestinal flora composition in CUMS model rats (cluster analysis); type: in vivo, rat; details: albiflorin 7 days
Procedure: as §1
FIG. 5 is a graph showing the cluster analysis of intestinal flora composition correlation.

[4] = after 7 days of administration of albiflorin

Compound | Amounts of cholic acid, amino acids and vitamins (intestinal flora metabolites) compared with the depression group [1, 4] | Overall metabolism of intestinal flora compared with the depression group (VIP analysis) [1, 4] | Metabolism of intestinal flora relative to the normal group (PLS-DA multiple comparative analysis of metabolomics data) ([1]; albiflorin 7 consecutive days, 7 mg/k&, FIG. 1) | Action at cannabinoid receptor CB2 [2] | Amount of probiotic firmicutes, especially lactic acid bacteria, compared with the stressed rat model group [3] | Intestinal flora composition versus blank group (Control), cluster analysis [3] | Metabolism of rat intestinal flora relative to the normal state (multivariable PLS-DA analysis) ([1]; fluoxetine 7 days, 10 mg/kg/d, FIG. 6)
C[C@]12C[C@@H](O)[C@@H]3C[C@@]1(O[C@@H]1O[C@H](CO)[C@@H](O)[C@H](O)[C@H]1O)[C@@]3(COC(=O)c1ccccc1)C(=O)O2 [albiflorin] | increased | significantly improved | almost completely overlapped with the normal group | agonist | significantly increased | no statistical difference (P>0.05) | 
CNCCC(Oc1ccc(C(F)(F)F)cc1)c1ccccc1 (stereo not shown) [fluoxetine, reference compound] |  |  |  |  |  |  | deviated the metabolism of rat intestinal flora more from the normal state
